From ChEMBL document CHEMBL4715808, “Discovery of (1S,2R,3S,4S,5R,6R)-2-Amino-3-[(3,4-difluorophenyl)sulfanylmethyl]-4-hydroxy-bicyclo[3.1.0]hexane-2,6-dicarboxylic Acid Hydrochloride (LY3020371·HCl): A Potent, Metabotropic Glutamate 2/3 Receptor Antagonist with Antidepressant-Like Activity” (J Med Chem, 2016)

Columns and labels:
[1] = target: T1, Metabotropic glutamate receptor 3 (Homo sapiens, UniProt Q14832); assay: Antagonist activity at human recombinant mGlu3 receptor stably expressed in golden hamster AV12 cells co-expressing rat EAAT1 assessed as reduction in DCG IV-induced inhibition of forskolin-stimulated cAMP accumulation preincubated for 20 mins followed by incubation with cAMP-d2 conjugate and anti-cAMP cryptate for 1 hr by HTRF assay; type: functional, cell-based
[2] = target: T1, Metabotropic glutamate receptor 3; assay: Displacement of [3H]-LY459477 from recombinant human mGlu3 receptor expressed in hamster AV12 cell membranes co-expressing rat EAAT1 incubated for 90 mins by top count scintillation method; design: species or system Cell membrane
[3] = target: T2, Metabotropic glutamate receptor 2 (Homo sapiens, UniProt Q14416)
Description: Antagonist activity at human recombinant mGlu2 receptor stably expressed in golden hamster AV12 cells co-expressing rat EAAT1 assessed as reduction in DCG IV-induced inhibition of forskolin-stimulated cAMP accumulation preincubated for 20 mins followed by incubation with cAMP-d2 conjugate and anti-cAMP cryptate for 1 hr by HTRF assay

[4] = target: T2, Metabotropic glutamate receptor 2; remark: listed apart in the source
Description: Displacement of [3H]-LY459477 from recombinant human mGlu2 receptor expressed in hamster AV12 cell membranes co-expressing rat EAAT1 incubated for 90 mins by top count scintillation method

[5] = target: T2, Metabotropic glutamate receptor 2; assay: […] at mGlu2 (unknown origin)
[6] = target: T1, Metabotropic glutamate receptor 3; assay: […] at mGlu3 (unknown origin)

T1 sequence (Q14832 whole entry): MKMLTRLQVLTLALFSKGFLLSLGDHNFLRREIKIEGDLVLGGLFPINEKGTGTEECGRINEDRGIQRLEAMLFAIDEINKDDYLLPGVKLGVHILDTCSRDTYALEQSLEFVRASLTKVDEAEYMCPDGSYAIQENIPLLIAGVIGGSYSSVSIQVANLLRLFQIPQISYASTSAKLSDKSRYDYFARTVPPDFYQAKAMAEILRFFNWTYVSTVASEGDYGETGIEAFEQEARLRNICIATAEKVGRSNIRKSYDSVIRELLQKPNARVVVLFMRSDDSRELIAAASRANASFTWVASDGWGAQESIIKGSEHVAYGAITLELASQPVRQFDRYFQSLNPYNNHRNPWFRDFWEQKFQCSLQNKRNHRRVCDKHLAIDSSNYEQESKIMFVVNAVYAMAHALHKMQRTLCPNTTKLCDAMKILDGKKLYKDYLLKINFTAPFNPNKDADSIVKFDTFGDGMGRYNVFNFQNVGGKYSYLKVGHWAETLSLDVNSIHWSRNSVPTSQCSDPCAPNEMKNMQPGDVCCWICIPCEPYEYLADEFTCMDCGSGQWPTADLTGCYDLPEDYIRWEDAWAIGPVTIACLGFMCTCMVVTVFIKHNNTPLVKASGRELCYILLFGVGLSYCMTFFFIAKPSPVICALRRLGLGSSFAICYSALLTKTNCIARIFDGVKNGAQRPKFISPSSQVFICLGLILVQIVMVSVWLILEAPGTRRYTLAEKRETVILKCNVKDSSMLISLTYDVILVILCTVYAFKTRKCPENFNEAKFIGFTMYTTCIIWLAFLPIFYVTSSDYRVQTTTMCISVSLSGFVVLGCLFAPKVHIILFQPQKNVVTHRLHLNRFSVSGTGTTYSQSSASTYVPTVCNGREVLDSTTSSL
T2 sequence (Q14416 whole entry): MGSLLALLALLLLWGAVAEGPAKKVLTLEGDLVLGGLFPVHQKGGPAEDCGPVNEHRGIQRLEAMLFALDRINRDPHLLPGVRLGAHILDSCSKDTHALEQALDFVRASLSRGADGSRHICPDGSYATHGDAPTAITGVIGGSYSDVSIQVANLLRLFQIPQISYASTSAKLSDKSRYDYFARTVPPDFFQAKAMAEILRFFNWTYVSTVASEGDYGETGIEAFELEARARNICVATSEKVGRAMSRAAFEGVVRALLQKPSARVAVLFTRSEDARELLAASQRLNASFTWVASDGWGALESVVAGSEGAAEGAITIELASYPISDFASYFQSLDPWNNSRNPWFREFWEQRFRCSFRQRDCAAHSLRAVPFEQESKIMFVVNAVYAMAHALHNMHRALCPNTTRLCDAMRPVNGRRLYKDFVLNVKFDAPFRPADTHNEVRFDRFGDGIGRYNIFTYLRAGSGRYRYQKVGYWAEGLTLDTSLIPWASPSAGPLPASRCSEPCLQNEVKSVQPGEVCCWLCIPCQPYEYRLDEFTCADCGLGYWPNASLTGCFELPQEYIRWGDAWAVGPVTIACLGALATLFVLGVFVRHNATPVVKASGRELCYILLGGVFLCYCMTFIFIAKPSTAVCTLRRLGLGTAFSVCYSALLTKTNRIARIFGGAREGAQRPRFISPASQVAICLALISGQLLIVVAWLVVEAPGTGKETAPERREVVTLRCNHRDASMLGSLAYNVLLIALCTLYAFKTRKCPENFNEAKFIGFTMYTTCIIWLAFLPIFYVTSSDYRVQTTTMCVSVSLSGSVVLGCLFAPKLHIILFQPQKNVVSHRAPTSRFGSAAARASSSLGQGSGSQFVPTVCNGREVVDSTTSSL

Structure (SMILES): N[C@]1(C(=O)O)[C@@H]2[C@@H](C(=O)O)[C@@H]2[C@H](O)[C@H]1CSc1ccccc1
- IC50 [1]: 202 nM
- Ki [2]: 19.2 nM

Structure (SMILES): Cc1cc(SC[C@@H]2[C@@H](Sc3nc[nH]n3)[C@H]3[C@H](C(=O)O)[C@H]3[C@]2(N)C(=O)O)ccc1F
- IC50 [3]: 6.6 nM
- Ki [4]: 5.2 nM

Structure (SMILES): N[C@]1(C(=O)O)[C@@H]2[C@@H](C(=O)O)[C@@H]2[C@H](O)[C@H]1CSCc1ccc(Cl)c(Cl)c1
- IC50 [1]: 62.3 nM
- Ki [2]: 16.3 nM
- IC50 [3]: 49.4 nM
- Ki [4]: 20.5 nM

Structure (SMILES): N[C@]1(C(=O)O)[C@@H]2[C@@H](C(=O)O)[C@@H]2[C@H](O)[C@H]1CSc1ccc(F)cc1
- IC50 [1]: 41.9 nM
- Ki [2]: 6.8 nM
- IC50 [3]: 20.2 nM
- Ki [4]: 10.4 nM

Structure (SMILES): N[C@]1(C(=O)O)[C@@H]2[C@@H](C(=O)O)[C@@H]2[C@H](O)[C@@H]1CSc1ccccc1
- IC50 [1]: 2410 nM
- Ki [2]: 251 nM

Structure (SMILES): N[C@]1(C(=O)O)[C@@H]2[C@@H](C(=O)O)[C@@H]2[C@@H](O)[C@@H]1CSc1ccccc1
- IC50 [1]: 2160 nM
- Ki [2]: 238 nM

Structure (SMILES): Cc1cc(SC[C@@H]2[C@@H](O)[C@H]3[C@H](C(=O)O)[C@H]3[C@]2(N)C(=O)O)ccc1F
- IC50 [3]: 17.2 nM
- Ki [4]: 8.9 nM

Structure (SMILES): N[C@]1(C(=O)O)[C@@H]2[C@@H](C(=O)O)[C@@H]2[C@@H](O)[C@H]1CSc1ccccc1
- IC50 [1]: 547 nM
- Ki [2]: 26 nM

Structure (SMILES): N[C@]1(C(=O)O)[C@@H]2[C@@H](C(=O)O)[C@@H]2[C@H](O)[C@H]1CSc1cccc(F)c1
- IC50 [1]: 272 nM
- Ki [2]: 25.1 nM
- IC50 [3]: 76.2 nM
- Ki [4]: 43.7 nM

Structure (SMILES): N[C@@]1(C(=O)O)CC[C@H]2[C@H](C(=O)O)[C@H]21
- IC50 [5]: 7 nM
- IC50 [6]: 27.9 nM
